Data on 24 compounds can be found in patent publication US20240398828A1, “HETERO-ATOM CONTAINING COMPOUNDS AND USES THEREOF” (Kumquat Biosciences Inc., priority 2021, published 2024).

One assay addresses T1, PTPN1 (i.e., PTP1B) (Homo sapiens, UniProt P18031).
T1 sequence (P18031 1-435): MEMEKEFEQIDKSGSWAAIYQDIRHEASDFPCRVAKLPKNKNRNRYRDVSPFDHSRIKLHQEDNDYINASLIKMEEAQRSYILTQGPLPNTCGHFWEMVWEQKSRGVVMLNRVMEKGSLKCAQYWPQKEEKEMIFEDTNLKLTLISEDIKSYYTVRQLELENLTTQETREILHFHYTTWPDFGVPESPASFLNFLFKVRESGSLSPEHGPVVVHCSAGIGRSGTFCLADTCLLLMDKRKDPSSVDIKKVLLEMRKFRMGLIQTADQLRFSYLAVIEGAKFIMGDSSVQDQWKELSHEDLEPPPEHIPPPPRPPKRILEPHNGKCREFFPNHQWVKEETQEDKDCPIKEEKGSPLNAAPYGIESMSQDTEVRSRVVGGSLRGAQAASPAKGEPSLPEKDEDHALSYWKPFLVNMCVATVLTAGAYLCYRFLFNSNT
Description: Phosphatase activity assay (DiFMUP substrate), PTP1B. The assay is classed as biochemical. The following applies: compounds binned ≤1 uM or >1 uM. An outline of the steps:
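First, serially diluted inhibitor is mixed about 2 minutes with enzyme in pH 7.5 HEPES/NaCl/EDTA/DTT/Tween-20 buffer. Next, DiFMUP is added at the enzyme's Km, approximately 45 μM for PTPN2. Finally, DiFMU appearance is read continuously at room temperature and rates are fitted for IC50.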

The target of another assay is T2, PTPN2 (i.e., TC-PTP) (Homo sapiens, UniProt P17706).
T2 sequence (P17706 1-415): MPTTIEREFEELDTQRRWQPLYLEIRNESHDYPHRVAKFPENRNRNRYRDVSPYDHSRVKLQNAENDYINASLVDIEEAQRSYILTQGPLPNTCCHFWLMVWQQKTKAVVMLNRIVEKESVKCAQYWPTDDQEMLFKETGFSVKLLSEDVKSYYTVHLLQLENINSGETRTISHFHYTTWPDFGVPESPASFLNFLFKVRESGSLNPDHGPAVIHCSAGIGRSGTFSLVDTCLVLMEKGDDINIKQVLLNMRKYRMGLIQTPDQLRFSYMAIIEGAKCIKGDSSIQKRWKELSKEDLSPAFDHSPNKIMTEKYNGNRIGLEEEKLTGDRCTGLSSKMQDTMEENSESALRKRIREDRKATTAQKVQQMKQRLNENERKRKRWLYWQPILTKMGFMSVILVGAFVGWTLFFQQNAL
The experiment in a line: Phosphatase activity assay (DiFMUP substrate), PTPN2. The assay is classed as biochemical. The following applies: compounds binned ≤1 uM or >1 uM. A digest of the protocol:
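Using a Km-level DiFMUP substrate and 0.025 ng/ul PTPN2, phosphatase activity is tracked by DiFMU emission at 450 nm over about 15–30 minutes. Initial rates at ten inhibitor concentrations give IC50 by four-parameter fitting.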

As to `N#CCn1nc(-c2ccc(O)c(N3CC(=O)NS3(=O)=O)c2F)cc1C1CC1` [Compound 349, 2-(5-cyclopropyl-3-(3-(1,1-dioxido-4-oxo-1,2,5-thiadiazolidin-2-yl)-2-fluoro-4-hydroxyphenyl)-1H-pyrazol-1-yl)acetonitrile], the IC50 at PTPN1 (i.e., PTP1B) is no more than 1000 nM; on PTPN2 (i.e., TC-PTP), no more than 1000 nM.
For `O=C1CN(c2c(O)ccc(-c3ccnc(N4CCCC4)c3)c2F)S(=O)(=O)N1` [Compound 162, 5-(2-fluoro-6-hydroxy-3-(2-(pyrrolidin-1-yl)pyridin-4-yl)phenyl)-1,2,5-thiadiazolidin-3-one 1,1-dioxide], the half-inhibitory concentration (IC50) at PTPN1 (i.e., PTP1B) is no more than 1000 nM; on PTPN2 (i.e., TC-PTP), no more than 1000 nM.
In the case of `O=C1CN(c2c(O)ccc(-c3cnn(CCC4CCOC4)c3)c2F)S(=O)(=O)N1` (stereo not drawn) [Compound 228, 5-(2-fluoro-6-hydroxy-3-(1-(2-(tetrahydrofuran-3-yl)ethyl)-1H-pyrazol-4-yl)phenyl)-1,2,5-thiadiazolidin-3-one 1,1-dioxide], the IC50 was no more than 1000 nM at PTPN1 (i.e., PTP1B) and no more than 1000 nM on PTPN2 (i.e., TC-PTP).
As to `O=C1CN(c2c(O)ccc(C3=CCN(C4CC4)CC3)c2F)S(=O)(=O)N1` [Compound 316, 5-(3-(1-cyclopropyl-1,2,3,6-tetrahydropyridin-4-yl)-2-fluoro-6-hydroxyphenyl)-1,2,5-thiadiazolidin-3-one 1,1-dioxide], the IC50 on PTPN1 (i.e., PTP1B) was no more than 1000 nM; at PTPN2 (i.e., TC-PTP), no more than 1000 nM.
As for `O=C1CN(c2c(O)ccc(-c3cc(C4CC4CO)n[nH]3)c2F)S(=O)(=O)N1` (stereo not drawn) [Compound 501, 5-(2-fluoro-6-hydroxy-3-(3-(2-(hydroxymethyl)cyclopropyl)-1H-pyrazol-5-yl)phenyl)-1,2,5-thiadiazolidin-3-one 1,1-dioxide], the half-inhibitory concentration (IC50) at PTPN1 (i.e., PTP1B) is no more than 1000 nM; on PTPN2 (i.e., TC-PTP) it was no more than 1000 nM.
In the case of `Cn1nc(-c2ccc(O)c(N3CC(=O)NS3(=O)=O)c2F)cc1C1CC1` [Compound 367, 5-(3-(5-cyclopropyl-1-methyl-1H-pyrazol-3-yl)-2-fluoro-6-hydroxyphenyl)-1,2,5-thiadiazolidin-3-one 1,1-dioxide], the IC50 at PTPN1 (i.e., PTP1B) was no more than 1000 nM; on PTPN2 (i.e., TC-PTP) it was no more than 1000 nM.
For the compound `O=C1CN(c2c(O)ccc(-c3cnn(C4CCC(C(F)(F)F)CC4)c3)c2F)S(=O)(=O)N1` (stereo not drawn) [Compound 341, 5-(2-fluoro-6-hydroxy-3-(1-(4-(trifluoromethyl)cyclohexyl)-1H-pyrazol-4-yl)phenyl)-1,2,5-thiadiazolidin-3-one 1,1-dioxide], the IC50 was no more than 1000 nM on PTPN1 (i.e., PTP1B) and no more than 1000 nM at PTPN2 (i.e., TC-PTP).
Consider `O=C1CN(c2c(O)ccc(-c3cnn(CC4CC4)c3)c2F)S(=O)(=O)N1` [Compound 131, 5-(3-(1-(cyclopropylmethyl)-1H-pyrazol-4-yl)-2-fluoro-6-hydroxyphenyl)-1,2,5-thiadiazolidin-3-one 1,1-dioxide], for which the IC50 at PTPN1 (i.e., PTP1B) was no more than 1000 nM; at PTPN2 (i.e., TC-PTP) it was no more than 1000 nM.
Take `N#C[C@H]1CC[C@H](n2cnc(-c3ccc(O)c(N4CC(=O)NS4(=O)=O)c3F)c2)CC1` [Compound 250, (1r,4r)-4-(4-(3-(1,1-dioxido-4-oxo-1,2,5-thiadiazolidin-2-yl)-2-fluoro-4-hydroxyphenyl)-1H-imidazol-1-yl)cyclohexane-1-carbonitrile]: the 50% inhibitory concentration (IC50) on PTPN1 (i.e., PTP1B) was no more than 1000 nM; at PTPN2 (i.e., TC-PTP), greater than 1000 nM.
As for `O=C1CN(c2c(O)ccc(C3=CCCN(C4CC4)C3)c2F)S(=O)(=O)N1` [Compound 378, 5-(3-(1-cyclopropyl-1,2,5,6-tetrahydropyridin-3-yl)-2-fluoro-6-hydroxyphenyl)-1,2,5-thiadiazolidin-3-one 1,1-dioxide], the IC50 on PTPN1 (i.e., PTP1B) was no more than 1000 nM; at PTPN2 (i.e., TC-PTP), no more than 1000 nM.
On to `COCC1CCCN1c1cc(-c2ccc(O)c(N3CC(=O)NS3(=O)=O)c2F)[nH]n1` (stereo not drawn) [Compound 372, 5-(2-fluoro-6-hydroxy-3-(3-(2-(methoxymethyl)pyrrolidin-1-yl)-1H-pyrazol-5-yl)phenyl)-1,2,5-thiadiazolidin-3-one 1,1-dioxide], for which the IC50 at PTPN1 (i.e., PTP1B) was no more than 1000 nM; at PTPN2 (i.e., TC-PTP), no more than 1000 nM.
As to `N#CC1(n2cc(-c3ccc(O)c(N4CC(=O)NS4(=O)=O)c3F)c(F)n2)CC1` [Compound 474, 1-(4-(3-(1,1-dioxido-4-oxo-1,2,5-thiadiazolidin-2-yl)-2-fluoro-4-hydroxyphenyl)-3-fluoro-1H-pyrazol-1-yl)cyclopropane-1-carbonitrile], the IC50 on PTPN1 (i.e., PTP1B) is no more than 1000 nM; at PTPN2 (i.e., TC-PTP), no more than 1000 nM.
On to `O=C1CN(c2c(O)ccc(-c3cnn(-c4cccnc4)c3)c2F)S(=O)(=O)N1` [Compound 102, 5-(2-fluoro-6-hydroxy-3-(1-(pyridin-3-yl)-1H-pyrazol-4-yl)phenyl)-1,2,5-thiadiazolidin-3-one 1,1-dioxide], for which the half-maximal inhibitory concentration (IC50) at PTPN1 (i.e., PTP1B) is no more than 1000 nM; on PTPN2 (i.e., TC-PTP), no more than 1000 nM.
Regarding `C[C@H]1C=C(c2ccc(O)c(N3CC(=O)NS3(=O)=O)c2F)CN1` [Compound 504, (S)-5-(2-fluoro-6-hydroxy-3-(5-methyl-2,5-dihydro-1H-pyrrol-3-yl)phenyl)-1,2,5-thiadiazolidin-3-one 1,1-dioxide], the half-inhibitory concentration (IC50) at PTPN1 (i.e., PTP1B) is no more than 1000 nM; at PTPN2 (i.e., TC-PTP), no more than 1000 nM.
Turning to `C=CCCC1C=C(c2ccc(O)c(N3CC(=O)NS3(=O)=O)c2F)CN1` (stereo not drawn) [Compound 471, 5-(3-(5-(but-3-en-1-yl)-2,5-dihydro-1H-pyrrol-3-yl)-2-fluoro-6-hydroxyphenyl)-1,2,5-thiadiazolidin-3-one 1,1-dioxide], the IC50 on PTPN1 (i.e., PTP1B) is no more than 1000 nM; on PTPN2 (i.e., TC-PTP), no more than 1000 nM.
For the compound `O=C1CN(c2c(O)ccc(-c3cn(C(F)F)nc3F)c2F)S(=O)(=O)N1` [Compound 509, 5-(3-(1-(difluoromethyl)-3-fluoro-1H-pyrazol-4-yl)-2-fluoro-6-hydroxyphenyl)-1,2,5-thiadiazolidin-3-one 1,1-dioxide], the IC50 on PTPN1 (i.e., PTP1B) was no more than 1000 nM; on PTPN2 (i.e., TC-PTP), no more than 1000 nM.
In the case of `Cc1cc(-c2ccc(O)c(N3CC(=O)NS3(=O)=O)c2F)nn1C1CC1` [Compound 340, 5-(3-(1-cyclopropyl-5-methyl-1H-pyrazol-3-yl)-2-fluoro-6-hydroxyphenyl)-1,2,5-thiadiazolidin-3-one 1,1-dioxide], the IC50 at PTPN1 (i.e., PTP1B) was no more than 1000 nM; on PTPN2 (i.e., TC-PTP) it was no more than 1000 nM.
Turning to `O=C1CN(c2c(O)ccc(-c3cnn(Cc4ccncc4)c3)c2F)S(=O)(=O)N1` [Compound 174, 5-(2-fluoro-6-hydroxy-3-(1-(pyridin-4-ylmethyl)-1H-pyrazol-4-yl)phenyl)-1,2,5-thiadiazolidin-3-one 1,1-dioxide], the IC50 at PTPN1 (i.e., PTP1B) is no more than 1000 nM; at PTPN2 (i.e., TC-PTP), no more than 1000 nM.
Take `O=C1CN(c2c(O)ccc(-c3cn[nH]c3)c2F)S(=O)(=O)N1` [Compound 477, 5-(2-fluoro-6-hydroxy-3-(1H-pyrazol-4-yl)phenyl)-1,2,5-thiadiazolidin-3-one 1,1-dioxide]: the IC50 at PTPN1 (i.e., PTP1B) was no more than 1000 nM; on PTPN2 (i.e., TC-PTP), no more than 1000 nM.
For the compound `Cn1cc(-c2ccc(O)c(N3CC(=O)NS3(=O)=O)c2F)c(F)n1` [Compound 110, 5-(2-fluoro-3-(3-fluoro-1-methyl-1H-pyrazol-4-yl)-6-hydroxyphenyl)-1,2,5-thiadiazolidin-3-one 1,1-dioxide], the IC50 was no more than 1000 nM on PTPN1 (i.e., PTP1B) and no more than 1000 nM on PTPN2 (i.e., TC-PTP).
`O=C1CN(c2c(O)ccc(-c3cn(C4CCC(F)CC4)cn3)c2F)S(=O)(=O)N1` (stereo not drawn) [Compound 306, 5-(2-fluoro-3-(1-(4-fluorocyclohexyl)-1H-imidazol-4-yl)-6-hydroxyphenyl)-1,2,5-thiadiazolidin-3-one 1,1-dioxide]: the IC50 at PTPN1 (i.e., PTP1B) was no more than 1000 nM; at PTPN2 (i.e., TC-PTP), no more than 1000 nM.
In the case of `N#Cc1cc(Cn2cc(-c3ccc(O)c(N4CC(=O)NS4(=O)=O)c3F)cn2)ccc1F` [Compound 169, 5-((4-(3-(1,1-dioxido-4-oxo-1,2,5-thiadiazolidin-2-yl)-2-fluoro-4-hydroxyphenyl)-1H-pyrazol-1-yl)methyl)-2-fluorobenzonitrile], the IC50 at PTPN1 (i.e., PTP1B) is no more than 1000 nM; on PTPN2 (i.e., TC-PTP), no more than 1000 nM.
Consider `O=C1CN(c2c(O)ccc(-c3cc(C4CCC4)n[nH]3)c2F)S(=O)(=O)N1` [Compound 281, 5-(3-(3-cyclobutyl-1H-pyrazol-5-yl)-2-fluoro-6-hydroxyphenyl)-1,2,5-thiadiazolidin-3-one 1,1-dioxide], for which the concentration for half-maximal inhibition (IC50) at PTPN1 (i.e., PTP1B) is no more than 1000 nM; on PTPN2 (i.e., TC-PTP), no more than 1000 nM.
As for `CC(C)CCn1cc(-c2ccc(O)c(N3CC(=O)NS3(=O)=O)c2F)nn1` [Compound 219, 5-(2-fluoro-6-hydroxy-3-(1-isopentyl-1H-1,2,3-triazol-4-yl)phenyl)-1,2,5-thiadiazolidin-3-one 1,1-dioxide], the IC50 is no more than 1000 nM at PTPN1 (i.e., PTP1B) and no more than 1000 nM at PTPN2 (i.e., TC-PTP).

One may read the IC50 as the concentration needed to halve the response being measured.
